Like-named read-outs stand apart in the source and are kept apart here.
Biological target: hPAD4 (Homo sapiens, UniProt Q9UM07)
Assay: hPAD4 RFMS (RapidFire mass spectrometry) PAD4 inhibition assay;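 as to hPAD4 RFMS pIC50: grade E means pIC50 at most 4 and F means pIC50 4.0 to 5.0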
Format: biochemical
Settings: hPAD4 enzyme, RFMS readout
Method: Compounds of the present invention were assayed as inhibitors of PAD4 using the assay protocol described below.
Compound stock solutions were stored at RT. […] Final assay conditions were as follows:
Total incubation time: 65 mins at 37° C.
Stop solution: 40 μl 5% TCA in ACN
The compound numbers correspond to the compound numbers in Table 1. […] The term pIC50=−log(IC50). […] “NA” stands for “not assayed.”

[1] = pIC50=−log(IC50), read-out: hPAD4 RFMS pIC50 (converted)

Sequence of hPAD4 (Q9UM07 whole entry): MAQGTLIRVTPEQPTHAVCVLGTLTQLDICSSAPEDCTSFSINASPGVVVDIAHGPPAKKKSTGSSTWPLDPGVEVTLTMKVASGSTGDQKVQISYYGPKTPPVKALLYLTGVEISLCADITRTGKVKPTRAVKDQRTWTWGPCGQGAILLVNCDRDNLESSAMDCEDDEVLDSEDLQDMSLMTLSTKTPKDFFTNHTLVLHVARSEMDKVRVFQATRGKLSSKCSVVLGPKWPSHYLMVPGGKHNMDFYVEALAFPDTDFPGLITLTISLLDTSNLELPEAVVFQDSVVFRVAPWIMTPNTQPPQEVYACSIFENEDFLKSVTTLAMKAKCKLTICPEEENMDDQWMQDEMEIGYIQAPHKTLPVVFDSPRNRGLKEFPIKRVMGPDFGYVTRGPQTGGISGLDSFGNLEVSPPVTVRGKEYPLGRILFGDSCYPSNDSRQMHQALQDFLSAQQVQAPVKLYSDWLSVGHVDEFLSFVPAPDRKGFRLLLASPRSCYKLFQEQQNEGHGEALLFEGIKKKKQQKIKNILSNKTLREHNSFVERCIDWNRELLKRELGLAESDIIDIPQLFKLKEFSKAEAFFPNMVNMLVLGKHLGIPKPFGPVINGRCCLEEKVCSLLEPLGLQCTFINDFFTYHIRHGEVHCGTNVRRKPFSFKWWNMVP

Cn1c(-c2cc3cccnc3n2CC2CC2)nc2cc(C(=O)N3CC(N)CC(F)(F)C3)ccc21 (centres unmarked) [Compound I-51]
IC50 [1]: 10 to 100 µM
IC50 (read-out: hPAD4 RFMS IC50): > 10 µM

COc1cc(C(=O)N2C[C@H]3CCC2[C@H]3N)cc2nc(-c3cc4cc(/C=C/CCc5ccccc5)ccc4n3CC3CC3)n(C)c12 [Compound I-360]
IC50 [1]: < 1 µM
IC50 (read-out: hPAD4 RFMS IC50): < 1 µM

COCCn1c(-c2nc3cc(C(=O)N4C[C@H]5CC[C@@H]4[C@@H]5N)cc(OC)c3n2C)cc2cccnc21 [Compound I-169]
IC50 [1]: < 1 µM
IC50 (read-out: hPAD4 RFMS IC50): < 1 µM

COc1cc(C(=O)N2C[C@H]3CCC2[C@H]3N)cc2nc(-c3cc4cc(/C=C/CC(C)C)ccc4n3CC3CC3)n(C)c12 [Compound I-358]
IC50 [1]: < 1 µM
IC50 (read-out: hPAD4 RFMS IC50): < 1 µM

COc1cc(C(=O)N2C[C@H]3CCC2[C@H]3N)cc2nc(-c3cc4cc(N(C)CCC5CC5)ccc4n3CC3CC3)n(C)c12 [Compound I-373]
IC50 [1]: 1 to 10 µM
IC50 (read-out: hPAD4 RFMS IC50): 1 to 5 µM

Cn1c(-c2cc3cccnc3n2CC2CC2)nc2cc(C(=O)N3CCC4(CCCN4)C3)ccc21 (centres unmarked) [Compound I-39]
IC50 [1]: 10 to 100 µM
IC50 (read-out: hPAD4 RFMS IC50): > 10 µM

Cn1c(-c2cc3cccnc3n2CC2CC2)nc2cc(C(=O)N3C[C@H](N)C[C@H](F)C3)ccc21 [Compound I-67]
IC50 [1]: 10 to 100 µM
IC50 (read-out: hPAD4 RFMS IC50): > 10 µM

Cn1c(-c2cc3cccnc3n2CC2CC2)nc2cc(C(=O)N3CCC[C@H]4NCC[C@H]43)ccc21 [Compound I-60]
IC50 [1]: 10 to 100 µM
IC50 (read-out: hPAD4 RFMS IC50): > 10 µM

Cn1c(-c2cc3cccnc3n2CC2CC2)nc2cc(C(=O)N3C4CCC(N)C3CC4)ccc21 (centres unmarked) [Compound I-63]
IC50 [1]: 10 to 100 µM
IC50 (read-out: hPAD4 RFMS IC50): > 10 µM

Cn1c(-c2cc3cccnc3n2CC2CC2)nc2cc(C(=O)N3CCC[C@@H]4CNC[C@@H]43)ccc21 [Compound I-43]
IC50 [1]: > 100 µM
IC50 (read-out: hPAD4 RFMS IC50): > 10 µM

Cn1c(-c2cc3cccnc3n2CC2CC2)nc2cc(C(=O)N3CCC4CCNC4C3)ccc21 (centres unmarked) [Compound I-6]
IC50 [1]: 1 to 10 µM
IC50 (read-out: hPAD4 RFMS IC50): 1 to 5 µM

Cn1c(-c2cc3ccccc3n2CC2CC2)nc2cc(C(=O)N3CC[C@H]4CCN[C@H]4C3)ccc21 [Compound I-7]
IC50 [1]: < 1 µM
IC50 (read-out: hPAD4 RFMS IC50): < 1 µM

Cn1c(-c2cc3cccnc3n2CC2CC2)nc2cc(C(=O)N3CCCC4(CCCCN4)C3)ccc21 (centres unmarked) [Compound I-48]
IC50 [1]: 10 to 100 µM
IC50 (read-out: hPAD4 RFMS IC50): > 10 µM

COc1ccc2cc(-c3nc4cc(C(=O)N5C[C@H](N)CC[C@@H]5C)cc(OC)c4n3C)n(CC3CC3)c2n1 [Compound I-355, ((2S,5R)-5-amino-2-methylpiperidin-1-yl)(2-(1-(cyclopropylmethyl)-6-methoxy-1H-pyrrolo[2,3-b]pyridin-2-yl)-7-methoxy-1-methyl-1H-benzo[d]imidazol-5-yl)methanone]
IC50 [1]: < 1 µM
IC50 (read-out: hPAD4 RFMS IC50): < 1 µM

CCn1c(-c2nc3cc(C(=O)N4CC[C@@H]5CCN[C@@H]5C4)ccc3n2C)cc2cccnc21 [Compound I-5]
IC50 [1]: 10 to 100 µM
IC50 (read-out: hPAD4 RFMS IC50): > 10 µM

COc1cc(C(=O)N2C[C@H]3CCC2[C@H]3N)cc2nc(-c3cc4cc(/C=C/c5ccccc5)ccc4n3CC3CC3)n(C)c12 [Compound I-359]
IC50 [1]: < 1 µM
IC50 (read-out: hPAD4 RFMS IC50): < 1 µM

COc1cc(C(=O)N2C[C@H]3CC[C@@H]2[C@@H]3N)cc2nc(-c3cc4ccc(NCCC5CC5)cc4n3CC3CC3)n(C)c12 [Compound I-375]
IC50 [1]: < 1 µM
IC50 (read-out: hPAD4 RFMS IC50): < 1 µM

Cn1c(-c2cc3cccnc3n2CC2CC2)nc2cc(C(=O)N3CCCC4(CCCN4)C3)ccc21 (centres unmarked) [Compound I-41]
IC50 [1]: 10 to 100 µM
IC50 (read-out: hPAD4 RFMS IC50): > 10 µM

COc1cc(C(=O)N2C[C@H]3CCC2[C@H]3N)cc2nc(-c3cc4ccc(/C=C/c5ccc(C(F)(F)F)cc5)cc4n3CC3CC3)n(C)c12 [Compound I-367]
IC50 [1]: < 1 µM
IC50 (read-out: hPAD4 RFMS IC50): < 1 µM

Cn1c(-c2cc3cccnc3n2CC2CC2)nc2cc(C(=O)N3CCC(F)C(N)C3)ccc21 (centres unmarked) [Compound I-49]
IC50 [1]: 1 to 10 µM
IC50 (read-out: hPAD4 RFMS IC50): 5 to 10 µM

COc1cc(C(=O)N2C[C@H]3C[C@H](OC)[C@@H]2[C@@H]3N)cc2nc(-c3cc4cccnc4n3CC3CC3)n(C)c12 [Compound I-167, (1 S,4R,6S,7R)-2-{2-[1-(Cyclopropylmethyl)-1H-pyrrolo[2,3-b]pyridin-2-yl]-7-methoxy-1-methyl-1H-1,3-benzodiazole-5-carbonyl}-6-methoxy-2-azabicyclo[2.2.1]heptan-7-amine]
IC50 [1]: 1 to 10 µM
IC50 (read-out: hPAD4 RFMS IC50): 1 to 5 µM

COc1cc(C(=O)N2CC[C@@H]3CCN[C@@H]3C2)cc2nc(-c3cc4cncnc4n3CC3CC3)n(C)c12 [Compound I-4, 5-[(3aS,7aS)-octahydro-1H-pyrrolo[2,3-c]pyridine-6-carbonyl]-2-[7-(cyclopropylmethyl)-7H-pyrrolo[2,3-d]pyrimidin-6-yl]-7-methoxy-1-methyl-1H-1,3-benzodiazole]
IC50 [1]: 10 to 100 µM
IC50 (read-out: hPAD4 RFMS IC50): > 10 µM

Cn1c(-c2cc3cccnc3n2CC2CC2)nc2cc(C(=O)N3CCC[C@@H]4NCC[C@@H]43)ccc21 [Compound I-61]
IC50 [1]: > 100 µM
IC50 (read-out: hPAD4 RFMS IC50): > 10 µM

Cn1c(-c2cc3cccnc3n2CC2CC2)nc2cc(C(=O)N3CC4CC3CN4)ccc21 (centres unmarked) [Compound I-37]
IC50 [1]: > 100 µM
IC50 (read-out: hPAD4 RFMS IC50): > 10 µM

Cn1c(-c2cc3cccnc3n2CC2CC2)nc2cc(C(=O)N3CCCC4NCCCC43)ccc21 (centres unmarked) [Compound I-53]
IC50 [1]: > 100 µM
IC50 (read-out: hPAD4 RFMS IC50): > 10 µM

COc1cc(C(=O)N2C[C@H]3CCC2[C@H]3N)cc2nc(-c3cc4ccc(/C=C/C5CC5)cc4n3CC3CC3)n(C)c12 [Compound I-363]
IC50 [1]: < 1 µM
IC50 (read-out: hPAD4 RFMS IC50): < 1 µM

COc1ccc2cc(-c3nc4cc(C(=O)N5C[C@H]6CC[C@@H]5[C@@H]6N)ccc4n3C)n(CC3CC3)c2n1 [Compound I-353, ((1R,4R,7R)-7-amino-2-azabicyclo[2.2.1]heptan-2-yl)(2-(1-(cyclopropylmethyl)-6-methoxy-1H-pyrrolo[2,3-b]pyridin-2-yl)-1-methyl-1H-benzo[d]imidazol-5-yl)methanone]
IC50 [1]: < 1 µM
IC50 (read-out: hPAD4 RFMS IC50): < 1 µM

CCn1c(-c2nc3cc(C(=O)N4CC[C@H]5CCN[C@H]5C4)ccc3n2C)cc2cccnc21 [Compound I-1]
IC50 [1]: 10 to 100 µM
IC50 (read-out: hPAD4 RFMS IC50): > 10 µM

COc1cc(C(=O)N2CC[C@@H](F)[C@H](N)C2)cc2nc(-c3cc4cccnc4n3CC3CC3)n(C)c12 [Compound I-57]
IC50 [1]: 1 to 10 µM
IC50 (read-out: hPAD4 RFMS IC50): 1 to 5 µM

CCn1c(-c2nc3cc(C(=O)N4CC[C@@H]5CCN[C@@H]5C4)cc(OC)c3n2C)cc2cccnc21 (single isomer, unassigned) [Compound I-3]
IC50 [1]: 1 to 10 µM
IC50 (read-out: hPAD4 RFMS IC50): 1 to 5 µM

Cn1c(-c2cc3ccccc3n2CC2CC2)nc2cc(C(=O)N3CC[C@@H]4CCN[C@@H]4C3)ccc21 [Compound I-2]
IC50 [1]: 10 to 100 µM
IC50 (read-out: hPAD4 RFMS IC50): > 10 µM

COCCn1c(-c2nc3cc(C(=O)N4C[C@H](N)CC[C@@H]4C)cc(OC)c3n2C)cc2cccnc21 (racemic) [Compound I-170]
IC50 [1]: 1 to 10 µM
IC50 (read-out: hPAD4 RFMS IC50): 1 to 5 µM

COc1cc(C(=O)N2C[C@H]3CC[C@@H]2[C@@H]3N)cc2nc(-c3cc4cc(C5=Cc6ccccc6C5)ccc4n3CC3CC3)n(C)c12 [Compound I-362]
IC50 [1]: < 1 µM
IC50 (read-out: hPAD4 RFMS IC50): < 1 µM

COc1cc(C(=O)N2CC[C@H](F)[C@@H](N)C2)cc2nc(-c3cc4cccnc4n3CC3CC3)n(C)c12 [Compound I-58]
IC50 [1]: 10 to 100 µM
IC50 (read-out: hPAD4 RFMS IC50): > 10 µM

CCn1c(-c2nc3cc(C(=O)N4C[C@H]5CC[C@@H]4[C@@H]5N)cc(OC)c3n2C[C@H]2C[C@@](C)(OC)C2)cc2cccnc21 [Compound I-168]
IC50 [1]: < 1 µM
IC50 (read-out: hPAD4 RFMS IC50): < 1 µM

COc1cc(C(=O)N2CCC3CCNC3C2)cc2nc(-c3cc4cncnc4n3CC3CC3)n(C)c12 (centres unmarked) [Compound I-15, 2-[7-(cyclopropylmethyl)-7H-pyrrolo[2,3-d]pyrimidin-6-yl]-7-methoxy-1-methyl-5-{octahydro-1H-pyrrolo[2,3-c]pyridine-6-carbonyl}-1H-1,3-benzodiazole]
IC50 [1]: 1 to 10 µM
IC50 (read-out: hPAD4 RFMS IC50): 5 to 10 µM

COc1ccc2cc(-c3nc4cc(C(=O)N5C[C@@H](N)C[C@H](F)C5)cc(OC)c4n3C)n(CC3CC3)c2n1 [Compound I-356, ((3S,5S)-3-amino-5-fluoropiperidin-1-yl)(2-(1-(cyclopropylmethyl)-6-methoxy-1H-pyrrolo[2,3-b]pyridin-2-yl)-7-methoxy-1-methyl-1H-benzo[d]imidazol-5-yl)methanone]
IC50 [1]: < 1 µM
IC50 (read-out: hPAD4 RFMS IC50): < 1 µM

Cn1c(-c2cc3cccnc3n2CC2CC2)nc2cc(C(=O)N3CCCC4(CCNC4)C3)ccc21 (centres unmarked) [Compound I-46]
IC50 [1]: > 100 µM
IC50 (read-out: hPAD4 RFMS IC50): > 10 µM

CCn1c(-c2nc3cc(C(=O)N4CCC5CCNC5C4)ccc3n2C)cc2cccnc21 (centres unmarked) [Compound I-16]
IC50 [1]: 1 to 10 µM
IC50 (read-out: hPAD4 RFMS IC50): 5 to 10 µM

CCn1c(-c2nc3cc(C(=O)N4CC[C@H]5CCN[C@H]5C4)cc(OC)c3n2C)cc2cccnc21 (single isomer, unassigned) [Compound I-14]
IC50 [1]: 10 to 100 µM
IC50 (read-out: hPAD4 RFMS IC50): > 10 µM

COc1cc(C(=O)N2C[C@H]3CCC2[C@H]3N)cc2nc(-c3cc4ccc(/C=C/CC(C)C)cc4n3CC3CC3)n(C)c12 [Compound I-364]
IC50 [1]: < 1 µM
IC50 (read-out: hPAD4 RFMS IC50): < 1 µM

Cn1c(-c2cc3cccnc3n2CC2CC2)nc2cc(C(=O)N3CCC4CNC4C3)ccc21 (centres unmarked) [Compound I-40]
IC50 [1]: 10 to 100 µM
IC50 (read-out: hPAD4 RFMS IC50): > 10 µM

Cn1c(-c2cc3cccnc3n2CC2CC2)nc2cc(C(=O)N3C4CCC3CC(N)C4)ccc21 (centres unmarked) [Compound I-47]
IC50 [1]: > 100 µM
IC50 (read-out: hPAD4 RFMS IC50): > 10 µM

Cn1c(-c2cc3cccnc3n2CC2CC2)nc2cc(C(=O)N3CCCC4(CCN4)C3)ccc21 (centres unmarked) [Compound I-42]
IC50 [1]: > 100 µM
IC50 (read-out: hPAD4 RFMS IC50): > 10 µM

COc1cc(C(=O)N2C[C@H]3CCC2[C@H]3N)cc2nc(-c3cc4ccc(/C=C/Cc5ccccc5)cc4n3CC3CC3)n(C)c12 [Compound I-366]
IC50 [1]: < 1 µM
IC50 (read-out: hPAD4 RFMS IC50): < 1 µM

CCn1c(-c2nc3cc(C(=O)N4CCC5CCNC5C4)cc(OC)c3n2C)cc2cccnc21 (centres unmarked) [Compound I-13, 2-{1-ethyl-1H-pyrrolo[2,3-b]pyridin-2-yl}-7-methoxy-1-methyl-5-{octahydro-1H-pyrrolo[2,3-c]pyridine-6-carbonyl}-1H-1,3-benzodiazole]
IC50 [1]: 1 to 10 µM
IC50 (read-out: hPAD4 RFMS IC50): 1 to 5 µM
